Measurements as given in ChEMBL document CHEMBL1155753, “Verbalactone, a new macrocyclic dimer lactone from the roots of Verbascum undulatum with antibacterial activity” (2001).
In brackets after ≈: the same amount, converted by molar mass.

What was measured:
[1] = tested on: Klebsiella aerogenes; assay: Antibacterial activity against Enterobacter aerogenes isolate after 24 hrs by agar dilution method; format: functional
[2] = tested on: Staphylococcus epidermidis; assay: Antibacterial activity against Staphylococcus epidermidis isolate after 24 hrs by agar dilution method; format: functional
[3] = tested on: Pseudomonas aeruginosa; assay: Antibacterial activity against Pseudomonas aeruginosa ATCC 27853 after 24 hrs by agar dilution method; format: functional; settings: ATCC 27853, 24 h
[4] = tested on: Klebsiella pneumoniae; assay: Antibacterial activity against Klebsiella pneumoniae isolate after 24 hrs by agar dilution method; format: functional
[5] = tested on: Escherichia coli; assay: Antibacterial activity against Escherichia coli ATCC 25922 after 24 hrs by agar dilution method; format: functional; settings: ATCC 25922, 24 h
[6] = tested on: Salmonella enterica subsp. enterica; assay: Antibacterial activity against Salmonella enteritidis isolate after 24 hrs by agar dilution method; format: functional, Salmonella enterica subsp. enterica serovar Enteritidis
[7] = tested on: Lacticaseibacillus casei; assay: Antibacterial activity against Lactobacillus casei isolate after 24 hrs by agar dilution method; format: functional
[8] = tested on: Staphylococcus aureus; assay: Antibacterial activity against Staphylococcus aureus ATCC 25923 after 24 hrs by agar dilution method; format: functional; settings: ATCC 25923, 24 h

For `CCCCC[C@@H]1C[C@@H](O)CC(=O)O[C@H](CCCCC)C[C@@H](O)CC(=O)O1` [VERBALACTONE], the MIC [1] was > 500 µg/mL, the MIC [2] was 62.5 µg/mL (≈ 168 µM) and the MIC [3] was 500 µg/mL (≈ 1340 µM). The MIC [4] was 250 µg/mL (≈ 671 µM), the MIC [5] was 250 µg/mL (≈ 671 µM) and the MIC [6] was 125 µg/mL (≈ 336 µM). For the same compound, the MIC [7] was > 125 µg/mL and the MIC [8] was 62.5 µg/mL (≈ 168 µM).
